Measurements taken from patent US20210308143A1, “COMPOSITIONS AND METHODS FOR REDUCING BODY FAT” (Topokine Therapeutics, Inc., priority 2006, published 2021).
“Also recorded” adds a separate entry of the source.

Key:
[1] = system: 3T3-L1 preadipocytes and mature adipocytes; assay: MTS test for cell viability; type: cell-based, mouse
Experimental: (§1) Preparation of preadipocytes. 3T3-L1 mouse embryo fibroblasts are obtained and cultured. Cells are cultured at 37° C. in a humidified 5% CO2 atmosphere and grown in Dulbecco's modified Eagle's medium (DMEM) with 10% bovine calf serum. Confluency is induced for 2 days (Days −1 and 0) and preadipocytes are cultured in DMEM with 10% fetal bovine serum (FBS/DMEM) medium, supplemented with 167 nM insulin, […] isobutylmethylxanthine, and 1 μM dexamethasone for 2 days (Days 1 and 2).
Preparation (induction) of mature adipocytes from preadipocytes. Preadipocytes prepared as above are then maintained in a culture medium with 167 nM insulin supplement for another 2 days (Days 3 and 4), followed by culturing with 10% FBS/DMEM medium for an additional 4 days (Days 5-8), at which time >90% of the cells are expected to have differentiated and matured into adipocytes with accumulated fat droplets. All media contains 100 U/mL penicillin, 100 μg/mL streptomycin, and 292 μg of L-glutamine/mL. […]
Test for cell viability. […] The plate is analyzed by spectrometry at a wavelength of 490 nm, which is an absorbance peak for formazan. The quantity of formazan as measured by absorbance at 490 nm is a directly proportional to the number of viable cells.

[2] = system: mature adipocytes (from 3T3-L1); assay: Laser scanning cytometry (annexin V/PI) test for apoptosis; type: cell-based, mouse; conditions: 24 hours
Experimental: as §1
(§2) Preparation (induction) of mature adipocytes from preadipocytes. Preadipocytes prepared as above are then maintained in a culture medium with 167 nM insulin supplement for another 2 days (Days 3 and 4), followed by culturing with 10% FBS/DMEM medium for an additional 4 days (Days 5-8), at which time >90% of the cells are expected to have differentiated and matured into adipocytes with accumulated fat droplets. All media contains 100 U/mL penicillin, 100 μg/mL streptomycin, and 292 μg of L-glutamine/mL.
All experiments, except where otherwise indicated, are performed with bimatoprost added to the culture medium for a final concentration of 0%, 0.003%, 0.03%, or 0.3% for a duration of 3, 6, 12, or 24 hours [with 1:1000 dimethyl sulfoxide (DMSO)]. […]
Test for apoptosis (1). […] Apoptotic cells fluoresce and are detected by LSC, since AV binds specifically to phosphatidylserine in the disrupted plasma membrane. […]

[3] = system: 3T3-L1 preadipocytes and mature adipocytes; assay: TUNEL imaging test for apoptosis; type: cell-based, mouse
Experimental: as §1, §2
Test for apoptosis (2). Terminal Deoxynucleotidyl Transferase dUTP Nick-End Labeling (TUNEL) Imaging is one of the most common assays for apoptosis. […] Apoptosis manifests as fluorescence upon microscopic examination, which reflects the antibody-labeled BrdU incorporated at the cleaved portions of DNA.

3T3-L1 preadipocytes = assay: Oil-Red-O test for differentiation of preadipocytes into mature adipocytes; type: cell-based, mouse
Experimental: as §1, §2
Test for differentiation of preadipocytes into mature adipocytes. Oil-Red-O, a specific lipid stain, is used to test the effect of bimatoprost on adipogenesis. […] For each dish, multiple images are taken and analyzed for average lipid droplet size, percentage lipid area, and total droplet number with software. […]

[4] = system: laboratory rodents (hairless rats or nude mice); assay: In vivo rodent study, daily topical ointment on abdominal skin; conditions: daily topical ointment 0.003-0.3%, six months
Experimental: Animal preparation. Genetically uniform laboratory rodents (for example, hairless rats or nude mice) are used. They are adult laboratory rodents similar in size at the commencement of the study (approximately postnatal week 15 for rats). Multiple animals are tested. Animals randomized to bimatoprost are housed separately from control animals but are kept in the same room under identical environmental conditions. All animals are fed a standard diet, appropriate for the species, ad libidum.
Method. In all cases the vehicle is a compatible ointment, such as petrolatum, with a final bimatoprost concentration of 0%, 0.003%, 0.03%, or 0.3%. A fixed amount of ointment, for example 1 gram, is applied daily in a thin film over a uniform surface area of the abdominal skin of each animal. Each animal is randomized to a daily application of a dose of topical bimatoprost or vehicle alone. On a weekly basis, total body mass of each animal is determined on a scale. Total body fat is estimated by any of the several methods established for this purpose, for example, water displacement (Dahms et al. (1982) J NUTR. 112: 398-400), isotopic dilution (Culebras et al. (1977) J. PHYSIOL. 232: R60-65), Total Body Electrical Conductance (TOBEC) (Baer et al. (1993) PHYSIOL. BEHAV. 53: 1195-99), Dual-Energy X-Ray Absorptiometry (DEXA) (Bertin et al. (1998) J NUTRITION 128: 1550-54), or Nuclear Magnetic Resonance (NMR) (Kunnecke et al. (2004) OBES RES. 12: 1604-151. Animals are maintained and monitored in this fashion for six months, at which point they are sacrificed.
Analysis and Results. Abdominal fat pads of the sacrificed animals are excised and measured directly for mass and volume. Direct carcass analysis with chemical extraction may be further performed (Frisch et al. (1977) PNAS 74: 379-383). All results are normalized with reference to baseline values and then compared between bimatoprost and control groups.

human subjects = assay: In vivo human randomized double-blind study, topical ointment over triceps; conditions: daily petrolatum ointment 0.003-0.3%, 6 months
Excerpt: Multiple human subjects (both male and female), for example, with body mass indices of 30 or more but otherwise healthy, are entered into a randomized double-blind study. Either the left or the right arm is randomized to receive topical bimatoprost; the other arm receives vehicle only. Bimatoprost is supplied in a petrolatum-based ointment (the vehicle) at a final concentration of 0%, 0.003%, 0.03% or 0.3%. Ointment containers are unlabeled as to the presence or concentration of bimatoprost. Each day, subjects apply a thin film of ointment to the skin over the respective triceps while wearing new, clean surgical gloves. Subjects are instructed to refrain from washing the treated area for at least 8 hours and are instructed to refrain from wearing tight clothing or occlusive dressings that will come into contact with the treated area. Body fat calipers are used to measure fat in the triceps region bilaterally on a weekly basis. The study continues for 6 months. […] As a result, this contemplated outcome will show, in vivo, that compounds according to the present invention, including bimatoprost, can reduce fat.

human patients = assay: Clinical application examples (Examples 4-8), local bimatoprost to reduce fat deposits; type: in vivo; conditions: for fat pad between shoulders / fatty deposits on cheeks: daily ointment to face and between shoulders
Excerpt: In light of the foregoing description, the specific non-limiting examples presented below are for illustrative purposes and not intended to limit the scope of the invention in any way. In Examples 4-8, various modes of non-systemic administration of a cyclopentane heptanoic acid, 2-arylalkyl or cycloalkyl compound or derivative thereof can be used, for example, by topical application (ointment, cream, or transdermal patch), subcutaneous injection, intramuscular injection, or intralesional injection, any of which may involve a controlled (or sustained) release formulation or depot. In addition to medical therapy, the person's physician recommends a regimen of diet and exercise. After six months the person is unable to lose weight. The physician prescribes daily topical application of a bimatoprost ointment to the abdomen as treatment for central obesity. […] The person's physician prescribes a daily application of a bimatoprost ointment to the face and between the shoulders as treatment for the fat deposits. […] The person's physician prescribes a daily application of a bimatoprost ointment to the face and between the shoulders as treatment for the fat deposits. […] The plastic surgeon prescribes a daily application of a bimatoprost ointment to the hips and thighs as treatment for the fat deposits. […] The doctor prescribes an ophthalmic preparation of bimatoprost daily to both eyes as a treatment for the proptosis and exposure symptoms.

human eye = conditions: eyedrops, glaucoma, cited from earlier work
[5] = preadipocytes and/or mature adipocytes
[6] = Example 4, obese person, daily ointment to abdomen
[7] = Example 5, Cushing syndrome secondary to prednisone
[8] = Example 6, HIV-related lipodystrophy
[9] = Example 8, Grave's disease orbitopathy, ophthalmic preparation daily to both eyes

CCNC(=O)CCC/C=C\C[C@@H]1[C@@H](/C=C/[C@@H](O)CCc2ccccc2)[C@H](O)C[C@@H]1O [bimatoprost, cyclopentane N-ethyl heptenamide-5-cis-2-(3α-hydroxy-5-phenyl-1-trans-pentenyl)-3,5-dihydroxy, [1α, 2β, 3α, 5α]]
absorbance at 490 nm on MTS testing, treated cells compared to control cells ([1]; bimatoprost 0.003%, 0.03% or 0.3%, up to 24 hours, vs DMSO control): lower absorbance at 490 nm
rates of viability compared to control samples [1, 5]: lower rates of viability
AV-labeled and/or PI-labeled cells on laser scanning cytometry compared to control samples [2]: more AV-labeled and/or PI-labeled (apoptotic or dead) cells
BrdU-antibody-labeled cells on TUNEL imaging compared to control samples ([3]; preadipocytes and mature adipocytes, 24 hours): more BrdU-antibody-labeled (fluorescent) cells
rates of apoptosis compared to control samples [3, 5]: higher rates of apoptosis
lipid droplets on Oil-Red-O staining compared to control samples (3T3-L1 preadipocytes; bimatoprost 0.003%, 0.03%, and 0.3% μM added with induction medium): smaller and fewer lipid droplets
rates of differentiation into mature adipocytes compared to control samples (3T3-L1 preadipocytes; preadipocytes): lower rates of differentiation into mature adipocytes
subcutaneous (abdominal) fat mass compared to control animals [4]: lower subcutaneous (abdominal) fat mass
total body fat mass compared to control animals [4]: lower total body fat mass
total body mass compared to control animals [4]: lower total body mass
fat in treated body area (triceps, calipers) compared to vehicle-treated area (human subjects): lower fat
BMI (human patients; [6]): BMI is reduced
abdominal fat deposits (human patients; [6]): abdominal fat deposits are reduced
fat pad between shoulders (human patients; [7]): fat pad between their shoulders is reduced
fatty deposits on cheeks (human patients; [7]): fatty deposits on the person's cheeks are reduced
fat pad between shoulders (human patients; [8]): fat pad between their shoulders is reduced
fatty deposits on cheeks (human patients; [8]): fatty deposits on the person's cheeks are reduced
fatty deposits on hips and/or thighs (human patients; Example 7, daily ointment to hips and thighs): fatty deposits on the person's hips and/or thighs are reduced
condition (proptosis and exposure symptoms) (human patients; [9]): their condition improves
orbital fat (human patients; [9]): orbital fat is reduced
unwanted side-effects (human eye; Peplinski et al. (2004)): periocular pigmentary changes involving the eyelid; also recorded: deepening of the lid sulcus
intraocular pressure (human eye): decrease intraocular pressure
